Source: US11213506B2, “Combination therapy for the treatment or prevention of tumours” (QBIOTICS PTY LTD, priority 2017, dated 2022)

Key:
A431 cells [1] = assay: IncuCyte cytotoxicity assay (propidium iodide); type: cell-based, human; conditions: 500 μM; for propidium iodide staining (loss of plasma membrane integrity): after 120 minutes, majority of cells; for cell morphology (cytoplasmic swelling, blistering): differing extents and kinetics of onset
Protocol: (§1) A431 (human epidermoid carcinoma), MM649 (human melanoma), B16-OVA (B16-F10 mouse melanoma cell line stably transfected with chicken ovalbumin), MM415 (human melanoma) and FaDu (human hypopharyngeal carcinoma) cells were cultured in RPMI-1640, 10% FCS (complete medium) at 37° C., 5% CO2 in a humidified incubator. All cell lines used in this study were confirmed as mycoplasma negative using MycoAlert (Lonza). STR profiling was also performed to confirm the identity of the human cell lines used.
(§2) Four cancer cell lines (A431, MM649 (human melanoma), FaDu (HNSCC) and MM415 (human melanoma) were assessed for their response to epoxytigliane treatment. Cells were plated at a density of 10,000 cells per well (100 μl of complete media) into clear bottom black 96-well plates (Corning, #3603). Following 24 h incubation, the media within each well was aspirated and replaced with 50 μl of fresh media containing 1 μg/ml propidium iodide (PI). Stock solutions (20 mg/ml in ethanol) of four epoxytiglianes (Compounds 1, 2, 3 and 4) were diluted to 2× final assay concentration (1 mM) in identical media and inserted into a U-bottom 96 well plate in preparation for transfer. 50 μl of dilution was added to the required wells and the resultant plates inserted into an Essen Biosciences IncuCyte in preparation for imaging. Images were acquired at various time points (30 min, 1 h and at hourly intervals) for a total of 24 h.

MM649 cells [2] = assay: IncuCyte cytotoxicity assay (propidium iodide); type: cell-based, human; conditions: 500 μM; for propidium iodide staining (loss of plasma membrane integrity): after 120 minutes, majority of cells; for cell morphology (cytoplasmic swelling, blistering): differing extents and kinetics of onset
Protocol: as §1, §2

FaDu cells = assay: IncuCyte cytotoxicity assay (propidium iodide); type: cell-based, human; conditions: 500 μM; for propidium iodide staining (loss of plasma membrane integrity): after 120 minutes, majority of cells; for cell morphology (cytoplasmic swelling, blistering): differing extents and kinetics of onset
Protocol: as §1, §2

MM415 cells = assay: IncuCyte cytotoxicity assay (propidium iodide); type: cell-based, human; conditions: 500 μM; for propidium iodide staining (loss of plasma membrane integrity): after 120 minutes, majority of cells; for cell morphology (cytoplasmic swelling, blistering): differing extents and kinetics of onset
Protocol: as §1, §2

[3] = tested on: CD11c+ BMDCs with B16-OVA cells; assay: BMDC uptake of epoxytigliane treated B16-OVA cells; type: cell-based, C57Bl/6 mice; conditions: B16-OVA treated at 500 or 300 μM for 30 and 60 mins; 4 h co-culture
Protocol: The tibias and […] from four 7-8 week old C57Bl/6 mice were first surgically removed under sterile conditions. The marrow was flushed from the bone cavity with 10 ml of ice cold R10 media (using a 27G needle/syringe into a 50 ml polypropylene tube). Cells were pelleted at 1,500 rpm for 5 mins and washed ×2 with ice cold R10 media. After resuspension of the pellet into 10 ml of ice cold R10 medium, cells were counted using an improved haemocytometer and plated at a density of 2×10^6 cells per plate (petri dish) in 10 ml of R10 supplemented with 20 ng/ml murine GM-CSF. All plates were incubated at 37° C., 5% CO2 and at day 3 an additional 10 ml R10 with 20 ng/ml GM-CSF was added. Cells were again fed at day 6 and used for downstream assays on day 7.
Prior to co-incubation with BMDCs, B16-OVA cells were trypsinised, centrifuged at 1,200 rpm for 4 mins to pellet cells and washed ×2 with complete medium. Cells were then stained with 2 μM Cell Tracker Green in complete medium for 45 mins, after which they were pelleted and washed ×2 as above. Labelled B16-OVA cells were subsequently treated with Compounds 1, 2, 3 and 4 at two concentrations (500 or 300 μM) in media at a density of 1×10^6 cells/ml for 30 and 60 mins, after which cells were pelleted via centrifugation, supernatant removed via aspiration and the cell pellet washed ×1 with complete media. After the wash, the treated cells were resuspended in R10 media, inserted into the wells of a 6-well plate (Corning, #3471. Ultra low attachment surface) and BMDCs added. Co-cultures were incubated for 4 h after which cell suspensions were transferred to a microfuge tube and centrifuged at 1,500 rpm for 5 mins. Pellets were resuspended in 100 μl FACs buffer containing anti-CD11c-APC and incubated for 10 mins at 4° C. Cells were again pelleted, washed ×1 with FACs buffer and then fixed using PBS, 1% formaldehyde for 10 mins. After centrifugation and removal of the supernatant, cells were resuspended in 500 μl FACs buffer in preparation for flow cytometry.
Samples were first gated by FSC-H v FSC-A, then SSC-H v SS-A to identify single cells. The proportion of CD11c^+ cells (Ex: 640 nm, Em: 670/14) with CMFDAmid (Ex: 488 nm, Em: 530/30) were then determined for treated and untreated cells as a percentage of all CD11c^+ cells.

A431 cells [4] = assay: ATP release assay; type: cell-based, human; conditions: both concentrations (500 and 300 μM), within 60 minutes
Protocol: as §1, with “melanoma) and” for “melanoma),”, “ovalbumin)” for “ovalbumin), MM415 (human melanoma) and FaDu (human hypopharyngeal carcinoma) cells”, “incubator. BMDCs were cultured in R10 media (RPMI, 10% FCS, 2 mM glutamine, 50 μM beta-mercaptoethanol, Pen/Strep).” for “incubator.”
(§3) Cell lines were plated at a density of 10,000 cells per well into clear 96-well plates (Corning, #3595; 100 μl of complete media) and the resultant plates incubated overnight as previously detailed. The following day, media was aspirated from each well and 50 μl of fresh medium was inserted. Stock solutions of Compounds 1, 2, 3 and 4 were diluted to 2× final assay concentration (1 mM and 600 μM) and 50 μl of these dilutions added to the required wells. Ethanol only control solutions were also compiled and administered. At the indicated timepoints, 80 μl of media was removed, centrifuged at 1,200 rpm for 4 mins to pellet cell debris and 50 μl assayed for ATP using a bioluminescence based ATP assay kit (FLAA, Sigma-Aldrich). Relative luminescence units were recorded for each sample using a Hybrid Synergy H4 plate reader (BioTek).

MM649 cells [5] = assay: ATP release assay; type: cell-based, human; conditions: both concentrations (500 and 300 μM), within 60 minutes
Protocol: as §1, with “melanoma) and” for “melanoma),”, “ovalbumin)” for “ovalbumin), MM415 (human melanoma) and FaDu (human hypopharyngeal carcinoma) cells”, “incubator. BMDCs were cultured in R10 media (RPMI, 10% FCS, 2 mM glutamine, 50 μM beta-mercaptoethanol, Pen/Strep).” for “incubator.”
as §3

B16-OVA cells = assay: ATP release assay; type: cell-based, mouse; conditions: both concentrations (500 and 300 μM), within 60 minutes
Protocol: as §1, with “melanoma) and” for “melanoma),”, “ovalbumin)” for “ovalbumin), MM415 (human melanoma) and FaDu (human hypopharyngeal carcinoma) cells”, “incubator. BMDCs were cultured in R10 media (RPMI, 10% FCS, 2 mM glutamine, 50 μM beta-mercaptoethanol, Pen/Strep).” for “incubator.”
as §3

Compound | propidium iodide staining (loss of plasma membrane integrity) (A431 cells [1]) | cell morphology (cytoplasmic swelling, blistering) (A431 cells [1]) | propidium iodide staining (loss of plasma membrane integrity) (MM649 cells [2]) | cell morphology (cytoplasmic swelling, blistering) (MM649 cells [2]) | propidium iodide staining (loss of plasma membrane integrity) (FaDu cells) | cell morphology (cytoplasmic swelling, blistering) (FaDu cells) | propidium iodide staining (loss of plasma membrane integrity) (MM415 cells) | cell morphology (cytoplasmic swelling, blistering) (MM415 cells) | uptake of dying cancer cell fragments by CD11c+ dendritic cells/macrophages (BMDCs) [3] | ATP release (A431 cells [4]) | ATP release (MM649 cells [5]) | ATP release (B16-OVA cells)
CCCCCC(=O)OC1C(C)C2(O)C(C3OC3(CO)C(O)C3(O)C(=O)C(C)=CC32)C2C(C)(C)C12OC(=O)C(C)CC (stereo not drawn) [Compound 3, 12-hexanoyl-13-(2-methylbutanoyl)-6,7-epoxy-4,5,9,12,13,20-hexahydroxy-1-tiglien-3-one] | strong red staining | significant cytoplasmic swelling and ‘blistering’ | strong red staining | significant cytoplasmic swelling and ‘blistering’ | strong red staining | significant cytoplasmic swelling and ‘blistering’ | strong red staining | significant cytoplasmic swelling and ‘blistering’ | promotes uptake | significant release of ATP | significant release of ATP | significant release of ATP
CCC(C)C(=O)OC1C(C)C2(O)C(C3OC3(CO)C(O)C3(O)C(=O)C(C)=CC32)C2C(C)(C)C12OC(=O)C(C)CC (stereo not drawn) [Compound 2, 12,13-di-(2-methylbutanoyl)-6,7-epoxy-4,5,9,12,13,20-hexahydroxy-1-tiglien-3-one] | strong red staining | significant cytoplasmic swelling and ‘blistering’ | strong red staining | significant cytoplasmic swelling and ‘blistering’ | strong red staining | significant cytoplasmic swelling and ‘blistering’ | strong red staining | significant cytoplasmic swelling and ‘blistering’ | promotes uptake | significant release of ATP | significant release of ATP | significant release of ATP
CCCCCC(=O)OC1C(C)C2(O)C(C3OC3(CO)C(O)C3(O)C(=O)C(C)=CC32)C2C(C)(C)C12OC(=O)CCCCC (stereo not drawn) [Compound 4, 12,13-dihexanoyl-6,7-epoxy-4,5,9,12,13,20-hexahydroxy-1-tiglien-3-one] | strong red staining | significant cytoplasmic swelling and ‘blistering’ | strong red staining | significant cytoplasmic swelling and ‘blistering’ | strong red staining | significant cytoplasmic swelling and ‘blistering’ | strong red staining | significant cytoplasmic swelling and ‘blistering’ | promotes uptake | significant release of ATP | significant release of ATP | significant release of ATP
